Series [1] can be described thus: Activity and lethality of the metabolite CRL 40 467 in male mice. The series is classed as in vivo.
A short description of series [2]: Pharmacokinetic study on dogs (plasma AUC, metabolism to CRL 40 467). The series is classed as in vivo. To be noted: for AUCo^+9h of CRL 40 476, comparison between products administered: dogs, oral, 30 mg/kg, plasma, 0-9 h, stereoisomers not distinguished; for conversion to inactive metabolite CRL 40 467: in the organism. The source says: to distinguish CRL 40 982 from the racemic and dextrorotatory compounds, a kinetic study of the metabolism was undertaken on dogs (group of four animals). In a randomized crossover procedure, each animal received the following at the rate of one oral administration per week: 2 administrations of CRL 40 476 (for assessment of the variations within individuals), 1 administration of CRL 40 982 and 1 administration of CRL 40 983. Following each of these administrations, the kinetics of the CRL 40 476 and CRL 40 467 present in the plasma were determined (without looking to see whether these two products were in the racemic, levorotatory and/or dextrorotatory form, because of the difficulties associated with determining the optical rotation of each of the optical isomers in a biological medium).
The dose administered for each of the test substances CRL 40 476, CRL 40 982 and CRL 40 983 was 30 mg/kg.
After administration of CRL 40 476, the said CRL 40 476 and its metabolite, CRL 40 467, are found in the plasma.
After the administration of CRL 40 982, the following are found in the plasma: the said CRL 40 982, which will be characterized and determined as being CRL 40 476 by way of convenience, in view of what has been said above, and a metabolite which will be characterized and determined as being CRL 40 467.
Likewise, after administration of CRL 40 983, the 2 corresponding products in the plasma will be characterized and determined as being CRL 40 476 and CRL 40 467.
The curves of the plasma concentrations of the said CRL 40 476 and CRL 40 467 as a function of time are plotted from time […] to time T=+9 h after administration of the CRL 40 476, CRL 40 982 and CRL 40 983. The areas under the curves (AUCo^+9h) are then calculated.

The nature of series [3]: Behavior in rats. In kind it is in vivo, male rats. To be noted: intraperitoneal; for behavior, reactivities and variations in the rectal temperature and pupil diameter: male rats, 64, 16, 4 and 1 mg/kg; for mydriatic action in male rats: all the doses used. As to the method:
(§1) The comparative tests which were undertaken with the levorotatory derivative according to the invention (Ex. 1; Code no.: CRL 40 982), the dextrorotatory derivative (CP1; Code no.: CRL 40 983) and the corresponding racemate (CP2; Code no.: CRL 40 476) have been summarized below. Unless indicated otherwise, the 3 products studied in these tests were administered intraperitoneally as a suspension in an aqueous solution of gum arabic, in a volume of 20 ml/kg to male mice and in a volume of 5 ml/kg to male rats.
at a dose of 128 mg/kg, CRL 40 476 causes excitation with an increase in the fear ration for 2 h, exophthalmos for 1 h and mydriasis for 1 for 2 h;
at a dose of 32 mg/kg, CRL 40 476 causes excitation (transient, lasting 0.5 h) with an increase in the fear reaction for 1 h, exophthalmos for 0.5-1 h and mydriasis for 1-2 h;
at a dose of 8 mg/kg, CRL 40 476 causes exophthalmos for 0.5-1 h and mydriasis for 0.5 h;
at a dose of 2 mg/kg, CRL 40 476 induces transient mydriasis appearing 1 h after administration, whereas

Series [4] in a line: Toxicity in male mice, intraperitoneal administration. The series is classed as in vivo. On the procedure: as §1
Series [5] is described as follows: Motor activity in mice (actimeter). In kind it is in vivo, male mice. To be noted: for motor activity: 128 mg/kg and to a lesser extent 64 mg/kg, intraperitoneal four hours before 30 min recording; for level and statistical significance of hyperactivity relative to CRL 40 476 / intensity of stimulant effect / hyperactivity relative to the other products: intraperitoneal four hours before the test; for level and statistical significance of hyperactivity relative to CRL 40 476: especially at 128 mg/kg. As to the method:
as §1
The mice (6 per dose, 18 control animals) receive CRL 40 476, CRL 40 982 or CRL 40 983 four hours before being placed in an actimeter, where their motility is recorded for 30 minutes.

Series [6] can be described thus: Behavior in male mice (stimulant effects). In kind it is in vivo. To be noted: intraperitoneal. On the procedure: as §1
The nature of series [7]: Solubility of CRL 40 982. To be noted: alcohols, acetone, water, ether.
Series [8] in a line: Human clinical trials. In kind it is in vivo.
The nature of series [9]: Immunostimulant effect in vitro.
The mark [10] stands for this setting: male mice, intraperitoneal, 1024, 512, 256, 128 and 64 mg/kg.
[11] abbreviates: human, once or twice a day, tablets or gelatin capsules of 50 to 100 mg.

The term half-life denotes the time needed for the level to fall by half in the phase considered.

With `O=C(O)C[S+]([O-])C(c1ccccc1)c1ccccc1` (racemic) [CRL 40 467, (±)-benzhydrylsulfinylacetic acid], the activity of metabolite result in [1] (male mice, intraperitoneal, 64-1024 mg/kg) was “inactive”. Further, in series [1] (setting [10]), the “death of animals treated” value is on record as “does not cause the death of any of the animals treated” and the “duration of brief sedation” value lay in the range of 50 to 60 min. Also, the psychotropic activity entry in [1] (neuropsychopharmacological study) is recorded as “did not reveal any psychotropic activity”.
On to `NC(=O)C[S+]([O-])C(c1ccccc1)c1ccccc1` (single isomer, unassigned; (+)) [CRL 40 983, (+)-benzhydrylsulfinylacetamide], for which the “AUCo^+9h of CRL 40 476, comparison between products administered” value (“AUCo^+9h” for short) in series [2] is recorded as “not statistically different”. Besides, the “conversion to inactive metabolite CRL 40 467” value (“conversion” for short) in series [2] (listed as dextrorotatory derivative) is reported as “a very high proportion”. Further, the “behavior, reactivities and variations in the rectal temperature and pupil diameter” value in [3] is “substantially comparable to those of the control group”. For the same compound, in series [3] (male rats), the “stimulant effects in male rats” value is listed as “do not have stimulant effects” and the “mydriatic action in male rats” value was “devoid of this mydriatic action”. In addition, the “LDO (maximum non-lethal dose)” value in [4] was “greater than or equal to 512 mg/kg”. Besides, in [5], the motor activity result is recorded as “increase in the motor activity”; the “level and statistical significance of hyperactivity relative to CRL 40 476” value is “greater than those due to CRL 40 476”. Also, the “stimulant effects in male mice” value in [6] was “have stimulant effects”.
Take `NC(=O)C[S+]([O-])C(c1ccccc1)c1ccccc1` (racemic) [CRL 40 476, (±)-benzhydrylsulfinylacetamide]: in [2], the “AUCo^+9h” value is given as “not statistically different” and the “conversion” value is listed as “partially converted to (±)-benzhydrylsulfinylacetic acid”. In [3] (male rats, 2 mg/kg), the “transient mydriasis, time of appearance after administration” value was found to be 1 h. In series [3] (male rats, 8 mg/kg), the “exophthalmos, duration” value is 0.5 to 1 h and the “mydriasis, duration” value came out at 0.5 h. For the same compound, in [3] (male rats, 32 mg/kg), the “excitation (transient), duration” value came out at 0.5 h; the “exophthalmos, duration” value fell in the range of 0.5 to 1 h; the “increase in the fear reaction, duration” value was determined as 1 h; the “mydriasis, duration” value was in the range of 1 to 2 h. Further, in [3] (male rats, 128 mg/kg), the “excitation with increase in the fear reaction, duration” value turned out to be 2 h and the “exophthalmos, duration” value amounted to 1 h. In addition, in series [3] (male rats), the “stimulant effects in male rats” value is reported as “is a stimulant” and the “mydriatic action in male rats” value is on record as “has a mydriatic action at all the doses used”. For the same compound, the “LDO (maximum non-lethal dose)” value in [4] is “greater than or equal to 512 mg/kg”. Further, in [5], the motor activity result is on record as “increase in the motor activity” and the “intensity of stimulant effect / hyperactivity relative to the other products” value is “less than that obtained with either CRL 40 982 or CRL 40 983”. The “stimulant effects in male mice” value in series [6] is on record as “have stimulant effects”.
`NC(=O)C[S+]([O-])C(c1ccccc1)c1ccccc1` (single isomer, unassigned; (-)) [CRL 40 982, (-)-benzhydrylsulfinylacetamide]: in [2], the “AUCo^+9h” value was “approximately twice” and the “conversion” value was “only a small proportion of this product is converted to inactive CRL 40 467”. For the same compound, the bioavailability entry in series [2] (relative to racemic CRL 40 476 and dextrorotatory CRL 40 983) was “better bioavailability than the racemic compound CRL 40 476 and the dextrorotatory compound CRL 40 983”. Further, in series [3], the “behavior, reactivities and variations in the rectal temperature and pupil diameter” value is “substantially comparable to those of the control group”. Moreover, in [3] (male rats), the “stimulant effects in male rats” value is reported as “do not have stimulant effects” and the “mydriatic action in male rats” value is “devoid of this mydriatic action”. In series [4], the LD30 result was “about 512 mg/kg”; the relative toxicity result is “more toxic than CRL 40 983 (CP1) and CRL 40 476 (CP2)”. In [5], the motor activity result is recorded as “increase in the motor activity”; the “intensity of stimulant effect / hyperactivity relative to the other products” value was “stimulant effect equal in intensity to that observed with CRL 40 983”; the “level and statistical significance of hyperactivity relative to CRL 40 476” value was “greater than those due to CRL 40 476”. For the same compound, the solubility entry in series [7] is “soluble in alcohols and acetone and insoluble in water and ether”. The long-term clinical action entry in series [8] (human, long term) is “arousing substance useful for hypersomnia”. For the same compound, in series [8] (setting [11]), the “improvement in Alzheimer's disease” value was “improvement of the symptoms of dementia, memory disorders, aphasia and ideomotor apraxia”; the stimulant neuropsychopharmacological profile result is “different stimulant neuropsychopharmacological profile from that of the amphetamines and tricyclic antidepressants”. Besides, the “activity towards symptoms of dementia and loss of memory” value in series [8] (human, short and long term, especially in the elderly) was “particularly active towards the symptoms of dementia and loss of memory”. The short-term clinical action entry in series [8] (human, short term) is recorded as “purely hypnogenic, antiarousing substance”. Further, the half-life in [8] (in vivo, human clinical trials, read-out: elimination half-life (converted)) is approximately 10 h. For the same compound, the immunostimulant effect result in series [9] is reported as “immunostimulant effect was also observed”. The “stimulant effects in male mice” value in [6] is “have stimulant effects”.

These data come from patent US4927855A, “Levorotatory isomer of benzhydrylsulfinyl derivatives” (priority 1986, dated 1990).
